Assay results from paper PMC5920614 (ACS Central Science, 2018).
Ends that are not written are not given here.

Legend:
[1] = 31P NMR of peptide/lipid II mixtures; format: binding; settings: dimethyl sulfoxide
[2] = cited from earlier work

For “ITSISLCTPGC (also: bicyclic or more (positions not given here)) [nisin A]”, the “direction of shift of the new 31P NMR resonances (in words)” value ([1]; lipid II mixed with peptide) is listed as “both new resonances arising in the nisin/lipid II spectra were shifted upfield”, the “binding to lipid II by 31P NMR (in words)” value ([1]; two new 31P resonances) is listed as “both compounds bind to lipid II” and the “pyrophosphate 31P peak shift upon nisin binding (in words)” value ([2]; 31P NMR, dimethyl sulfoxide) is listed as “the pyrophosphate peaks shift upfield upon nisin binding”. For the same sequence, the “binding to lipid II (in words)” value [2] was “binds to the small molecular weight metabolite lipid II”.
